Test results taken from patent publication US20030162838A1, “Bactericide, antiseptic, dermally applicable composition, washing composition, antibacterial fiber aggregate, method for eradicating a microorganism, and method for inhibiting the proliferation of a microorgamism” (Ajinomoto Co., Inc., priority 2001, published 2003).
“Also recorded” adds a separate entry of the source.

How the values were obtained:
Format in all cases: cell-based
[1] = system: Aspergillus niger (ATCC16404); assay: Antibacterial activity evaluation, agar dilution MIC; conditions: Potato dextrose agar medium, 25° C. for 5 days
Excerpt: (§1) 4-Guanidinobutyldodecanamide hydrochloride (LAG-HCl) which is a salt of an amide group-containing guanidine derivative and N-cocoyl-L-arginine ethyl ester-DL-pyrrolidone carboxylate which is an N-long chain acyl basic amino acid derivative were examined for their concentrations at which the growth of each test strain was inhibited completely (MIC).
(§2) The test strains employed were Escherichia coli (ATCC8739), Pseudomonas aeruginosa (ATCC9027), Staphylococcus aureus (ATCC6538), Streptococcus mutans (ATCC35275), Propionibacterium acnes (ATCC6919), Candida albicans (ATCC10231), Aspergillus niger (ATCC16404), Trichophyton mentagrophytes (ATCC11480) and Malassezia furfur (ATCC14521).
(§3) A bacterial cell suspension of E.coli, P.aeruginosa, S.aureus and S.mutans was obtained by incubation in a sensitive broth medium at 35° C. for 20 hours. The bacterial cell suspension of P.acnes was obtained by anaerobic incubation in a GAM agar medium at 35° C. for 20 hours followed by collecting cells with a platinum loop spatula followed by suspending the cells in a sterilized physiological saline at a cell density at about 10^8 cells/ml. The bacterial cell suspension of C.albicans was obtained by incubation in a potato dextrose agar medium at 25° C. for 48 hours followed by collecting cells with a platinum loop spatula followed by suspending the cells in a sterilized physiological saline at a cell density at about 10^6 cells/ml. The bacterial cell suspension of A.niger was obtained by incubation in a potato dextrose agar medium at 25° C. for 7 days followed by collecting cells with a platinum loop spatula followed by suspending the cells in a sterilized physiological saline followed by filtration through a sterilized gauze to adjust at a cell density at about 10^6 cells/ml. The bacterial cell suspension of T.mentagrophytes was obtained by incubation in a Sabouraud's agar medium at 25° C. for 7 days followed by collecting spores and hyphae with a platinum loop spatula followed by suspending the cells in a sterilized physiological saline followed by pelletizing using a homogenizer to adjust at a cell density at about 10^6 cells/ml. The bacterial cell suspension of M.furfur was obtained by incubation in an YMO agar medium at 25° C. for 7 days followed by suspending the test strain in a sterilized phosphate-buffered physiological saline at a cell density at about 10^6 cells/ml.
(§4) To obtain an antibacterial activity assay sample, 4-guanidinobutyldodecanamide hydrochloride was dissolved in ethylene glycol at 2% which was used as a mother liquor which was diluted with water subsequently. N-cocoyl-L-arginine ethyl ester-DL-pyrrolidone carboxylate was dissolved in water to prepare a test solution. The respective minimum growth inhibition concentration at which no microbial growth was observed was determined (μg/ml).
(§5) The agar medium (19 ml) was dissolved once and then kept at 50° C., and to this solution 1 ml of each diluted […] was added until reaching the intended concentration and mixed thoroughly and then solidified.
(§6) Subsequently, the cell suspension of each test strain was sampled using a platinum loop spatula, with which an about 1 cm line was drawn on the antibacterial agent-supplemented agar plate. Each plate was incubated at the respective temperature for the respective time period shown below. […]
(§7) For E.coli, P.aeruginosa, S.aureus, S.mutans, P.acnes, C.albicans, A.niger, T.mentagrophytes, M.furfur, the respective agar medium indicated in the Table 1 shown above was shown. […]

[2] = system: Candida albicans (ATCC10231); assay: as above; conditions: Potato dextrose agar medium, 25° C. for 48 hours
Excerpt: as §1, §2, §3, §4, §5, §6, §7

[3] = system: Escherichia coli (ATCC8739); assay: as above; conditions: Muller-Hinton agar medium, 35° C. for 48 hours
Excerpt: as §1, §2, §3, §4, §5, §6, §7

[4] = system: Malassezia furfur (ATCC14521); assay: as above; conditions: YMO agar medium, 25° C. for 7 days
Excerpt: as §1, §2, §3, §4, §5, §6, §7

[5] = system: Propionibacterium acnes (ATCC6919); assay: as above; conditions: GAM agar medium, 35° C. for 48 hours (anaerobic incubation)
Excerpt: as §1, §2, §3, §4, §5, §6, §7

[6] = system: Pseudomonas aeruginosa (ATCC9027); assay: as above; conditions: Muller-Hinton agar medium, 35° C. for 48 hours
Excerpt: as §1, §2, §3, §4, §5, §6, §7

[7] = system: Staphylococcus aureus (ATCC6538); assay: as above; conditions: Muller-Hinton agar medium, 35° C. for 48 hours
Excerpt: as §1, §2, §3, §4, §5, §6, §7

[8] = system: Streptococcus mutans (ATCC35275); assay: as above; conditions: Muller-Hinton agar medium, 35° C. for 48 hours
Excerpt: as §1, §2, §3, §4, §5, §6, §7

[9] = system: Trichophyton mentagrophytes (ATCC11480); assay: as above; conditions: Sabouraud's agar medium, 25° C. for 7 days
Excerpt: as §1, §2, §3, §4, §5, §6, §7

test strains = assay: Antibacterial activity evaluation, overall verdict over all test strains; conditions: summary of the MIC tables
Excerpt: as §1, §2, §4
(§8) In order to evaluate the contribution of acyl moiety to the antibacterial activity in amido group-containing guanidine derivatives, 4-guanidinobutyldecanamide acetate (DAG-AcOH), 4-guanidinobutyldodecanamide acetate (LAG-AcOH), 4-guanidinobutymyristilamide acetate (MAG-AcOH), 4-guanidinobutylpalmitylamide acetate (PAG-AcOH) were examined for their concentrations at which the growth of each test strain was inhibited completely (MIC).
as §2, with “aeruglnosa” for “aeruginosa”, “(ATCC11480),” for “(ATCC11480) and”, “(ATCC14521), MRSA and Cladosporium cladosporioides (IFO6348).” for “(ATCC14521).”
(§9) The respective minimum growth inhibition concentration at which no microbial growth was observed was determined (Table 4).

MRSA = assay: Antibacterial activity evaluation, agar dilution MIC; conditions: Muller-Hinton agar medium, 35° C. for 48 hours
Excerpt: as §8
as §2, with “aeruglnosa” for “aeruginosa”, “(ATCC11480),” for “(ATCC11480) and”, “(ATCC14521), MRSA and Cladosporium cladosporioides (IFO6348).” for “(ATCC14521).”
The bacterial cell suspension of MRSA was obtained by incubation in a sensitive broth medium at 35° C. for 20 hours.
(§10) To obtain an antibacterial activity assay sample, each compound was dissolved in water to prepare a test solution, which was used as a mother liquor which was diluted with water subsequently.
as §9
(§11) The agar medium (19 ml) was dissolved once and then kept at 50° C., and to this solution 1 ml of each diluted […] was added until reaching the intended concentration and mixed thoroughly and solidified.
(§12) Subsequently, the cell suspension of each test strain was sampled using a platinum loop spatula, with which an about 1 cm line was drawn on the antibacterial agent-supplemented agar plate. Each plate was incubated at the respective temperature for the respective time period shown below.

[10] = system: Cladosporium cladosporioides (IFO6348); assay: as above; conditions: Potato dextrose agar medium, 25° C. for 5 days
Excerpt: as §8
as §2, with “aeruglnosa” for “aeruginosa”, “(ATCC11480),” for “(ATCC11480) and”, “(ATCC14521), MRSA and Cladosporium cladosporioides (IFO6348).” for “(ATCC14521).”
The bacterial cell suspension of Cladosporium cladosporioides was obtained by incubation in a potato dextrose agar medium at 25° C. for 7 days followed by collecting cells with a platinum loop spatula followed by suspending […] the cells in a sterilized physiological saline followed by filtration through a sterilized gauze to adjust at a cell density at about 10^6 cells /ml.
as §10, §9, §11, §12

Row | Compound | MIC, A. niger [1] [µg/mL] | MIC, C. albicans [2] [µg/mL] | MIC, E. coli [3] [µg/mL] | MIC, M. furfur [4] [µg/mL] | MIC, P. acnes [5] [µg/mL] | MIC, P. aeruginosa [6] [µg/mL] | MIC, S. aureus [7] [µg/mL] | MIC, S. mutans [8] [µg/mL] | MIC, T. mentagrophytes [9] [µg/mL] | antibacterial activity against any of the test strains (verdict in words) (test strains) | MIC, MRSA (MRSA) [µg/mL] | MIC, C. cladosporioides [10] [µg/mL] | antibacterial activity against any of the test strains (verdict in words) (test strains; acetate)
1 | 4-Guanidinobutyldodecanamide hydrochloride [LAG-HCl] | 200 to 300 | 500 to 750 | 75 to 100 | 100 to 150 | 7.5 to 10 | 75 to 100 | 7.5 to 10 | 5 to 7.5 | 75 to 100 | satisfactory antibacterial activity |  |  | 
2 | CC(=O)O.CCCCCCCCCC(=O)NCCCCNC(=N)N [DAG-AcOH, 4-guanidinobutyldecanamide acetate] | 300 to 500 | 300 to 500 | 150 to 200 | 50 to 75 | 30 to 50 | 200 to 300 | 30 to 50 | 20 to 30 | 75 to 100 | satisfactory antibacterial activity | 50 to 75 | 200 to 300 | 
3 | CC(=O)O.CCCCCCCCCCCC(=O)NCCCCNC(=N)N [LAG-AcOH, 4-guanidinobutyldodecanamide acetate] | 200 to 300 | 300 to 500 | 30 to 50 | 50 to 75 | 10 to 15 | 75 to 100 | 2 to 3 | 5 to 7.5 | 30 to 50 |  | 10 to 15 | 150 to 200 | satisfactory antibacterial activity; also recorded: the best antibacterial activity
4 | CC(=O)O.CCCCCCCCCCCCCC(=O)NCCCCN=C(N)N [MAG-AcOH, 4-guanidinobutymyristilamide acetate] | 300 to 500 | 500 to 750 | 50 to 75 | 100 to 150 | 10 to 15 | 300 to 500 | 3 to 5 | 3 to 5 | 75 to 100 | satisfactory antibacterial activity | 10 to 15 | 200 to 300 | 
5 | N-cocoyl-L-arginine ethyl ester-DL-pyrrolidone carboxylate [CAE, reference compound] | 300 to 500 | 300 to 500 | 75 to 100 | 75 to 100 | 20 to 30 | 200 to 300 | 5 to 7.5 | 5 to 7.5 | 100 to 150 | satisfactory antibacterial activity |  |  | 
